Laboratory results: patent US10869931B2, “Polyethylene glycol-modified angiogenesis inhibitor HM-1 and application thereof” (NANJING ANJI BIOLOGICAL TECHNOLOGY CO.,LTD, priority 2016, dated 2020)
Where no end group is shown, it is not given here.

Experiments:
mouse spleen lymphocytes = assay: ConA-stimulated mouse spleen lymphocyte proliferation (MTT); type: cell-based; details: ConA 5 μg/mL, 48 h
Procedure: Tris-NH4Cl was used to break the red blood cells, and the cells were allowed to stand in an ice water bath for 4 min, centrifuged (1000 rpm×5 min), the supernatant was discarded, and the cells were washed twice with sterile PBS. Finally, cells were suspended in RPMI 1640 medium (5 mL) supplemented with 10% calf serum, counted, adjusted to a cell concentration of 5×10^6/mL, and cultured in a 96-well culture plate The test group consisted of blank control group, concanavalin A (ConA) group, dexamethasone (Dex) group (0.02 mg/mL) and mPEG-HM-1 group. […] The cells were cultured in a 37° C. cell culture chamber for 48 h. After the completion of the culture, 20 μL of MTT was added to each well, and the culture was continued for 4 h. Finally, all the solutions in each well were discarded, 100 μL of DMSO was added to each well, and the mixture was shaken and detected by a microplate reader OD value at 570 nm, 5 parallels per hole.

[1] = system: Prostate cancer tumor cells; assay: MTT proliferation inhibition, prostate cancer cells; type: cell-based, human; design: concentration or dose not given beside the values; details: 48 h
Procedure: (§1) The activity of mPEG-HM-1 to inhibit the growth of various tumor cells was examined by MTT assay. The tumor cells were cultured to a concentration of 90% or more in a 37° C., 5% CO2 incubator and collected by trypsinization. The cells were resuspended in the culture medium and counted under a microscope to adjust the cell concentration to 2×10^4 cells/mL, the cell suspension was inoculated into a 96-well plate at 100 μL/well and incubated overnight at 37° C. in a 5% CO2 incubator. mPEG-HM-1 was diluted with the culture solution to each predetermined concentration. Docetaxel is diluted to the final concentration with the culture medium. After the cells were fully attached, each dilution was added to a 96-well plate (100 μL/well). The mPEG-HM-1 dilution was added as a drug-administered group, and docetaxel was added as a positive control group, and a culture solution without any drug was used as a negative control group. Incubate for 48 h at 37° C. in a 5% CO2 incubator. 5 mg/mL of MTT was added to a 96-well plate at 20 μL per well, and incubation was continued for 4 hours. The medium was aspirated, dissolved in 150 μL of DMSO per well, and gently mixed by shaking for 10 min. The absorbance was measured at a measurement wavelength of 570 nm and a reference wavelength of 630 nm using a microplate reader, and the rate of growth inhibition (proliferation inhibition, PI) was calculated. The formula is as follows: PI (%)=1−administration group/negative group
(§2) The test was repeated 3 times independently, and the results obtained by the test were expressed as mean±SD, and the test results are shown in Table 15 to Table 18.

[2] = system: Esophageal cancer tumor cells; assay: MTT proliferation inhibition, esophageal cancer cells; type: cell-based, human; design: concentration or dose not given beside the values; details: 48 h
Procedure: as §1, §2

[3] = system: Head and neck cancer tumor cells; assay: MTT proliferation inhibition, head and neck cancer cells; type: cell-based, human; design: concentration or dose not given beside the values; details: 48 h
Procedure: as §1, §2

Melanoma tumor cells = assay: MTT proliferation inhibition, melanoma cells; type: cell-based, human; design: concentration or dose not given beside the values; details: 48 h
Procedure: as §1, §2

[4] = system: Uterine cancer tumor cells; assay: MTT proliferation inhibition, uterine cancer cells; type: cell-based, human; design: concentration or dose not given beside the values; details: 48 h
Procedure: as §1, §2

[5] = system: Ovarian cancer tumor cells; assay: MTT proliferation inhibition, ovarian cancer cells; type: cell-based, human; design: concentration or dose not given beside the values; details: 48 h
Procedure: as §1, §2

[6] = system: carrageenan-induced toe swelling in SD rats; assay: Carrageenan-induced acute toe swelling in rats; type: in vivo, rat; design: Swelling: unit not given here
Procedure: SD rats were divided into blank model group, dexamethasone-positive group (5 mg/kg) and mPEG-HM-1 test group. The drug was administered once a day, and the model group was given the same volume of normal saline for 3 days and fed normally. At the first hour after the last administration, 0.1 mL of 1% carrageenan was injected subcutaneously into the right hind paw of the rats to induce inflammation. The volume of the foot was measured at 1 h, 3 h, 5 h, and 7 h after inflammation. The degree of swelling of the foot was calculated according to the following formula: the degree of swelling of the foot (mL)=the volume of the foot after inflammation−the volume before inflammation. Record the number of milliliters of spilled liquid (method: use the ballpoint pen to circle as the measurement mark at the protruding point of the right joint, and then put the right hind foot of each mouse into the volume measuring device, so that the hind limb is exposed outside the cylinder, and the depth of the immersion was determined by coinciding the circle with the liquid surface. After the foot enters the liquid, the liquid level rises, and the volume of the overflow liquid is the volume of the right hind foot of the rat, and the normal volume of the right hind foot of each mouse is sequentially determined).

[7] = system: Gastric cancer tumor cells; assay: MTT proliferation inhibition, gastric cancer cells; type: cell-based, human; design: concentration or dose not given beside the values; details: 48 h
Procedure: as §1, §2

[8] = system: Colorectal cancer tumor cells; assay: MTT proliferation inhibition, colorectal cancer cells; type: cell-based, human; design: concentration or dose not given beside the values; details: 48 h
Procedure: as §1, §2

[9] = 80 mg/kg once a day for 3 days, 1 h after carrageenan
[10] = 80 mg/kg once a day for 3 days, 3 h after carrageenan
[11] = 80 mg/kg once a day for 3 days, 5 h after carrageenan
[12] = 80 mg/kg once a day for 3 days, 7 h after carrageenan
[13] = 160 mg/kg once a day for 3 days, 1 h after carrageenan
[14] = 160 mg/kg once a day for 3 days, 3 h after carrageenan
[15] = 160 mg/kg once a day for 3 days, 5 h after carrageenan
[16] = 160 mg/kg once a day for 3 days, 7 h after carrageenan
[17] = 40 mg/kg once a day for 3 days, 1 h after carrageenan
[18] = 40 mg/kg once a day for 3 days, 3 h after carrageenan
[19] = 40 mg/kg once a day for 3 days, 5 h after carrageenan
[20] = 40 mg/kg once a day for 3 days, 7 h after carrageenan

Row | Substance | A570 nm/A630 nm (mouse spleen lymphocytes; 40 μg/mL) | Inhibition Rate of spleen lymphocyte proliferation (mouse spleen lymphocytes; 40 μg/mL) | A570 nm/A630 nm (mouse spleen lymphocytes; 80 μg/mL) | Inhibition Rate of spleen lymphocyte proliferation (mouse spleen lymphocytes; 80 μg/mL) | A570 nm/A630 nm (mouse spleen lymphocytes; 160 μg/mL) | Inhibition Rate of spleen lymphocyte proliferation (mouse spleen lymphocytes; 160 μg/mL) | rate of growth inhibition [1] | rate of growth inhibition [2] | rate of growth inhibition [3] | rate of growth inhibition (Melanoma tumor cells) | rate of growth inhibition [4] | rate of growth inhibition [5] | Swelling [6, 9] | Swelling [6, 10] | Swelling [6, 11] | Swelling [6, 12] | Swelling [6, 13] | Swelling [6, 14] | rate of growth inhibition [7] | rate of growth inhibition [8] | other results
1 | mPEG-ALD40k-Arg-Gly-Ala-Asp-Arg-Ala-Gly-Gly-Gly-Gly-Arg-Gly-Asp ({mPEG‑ALD 40 kDa}-RGADRAGGGGRGD) [mPEG-ALD40k-HM-1] | 0.6176 ± 0.0998 | 10.09% | 0.5040 ± 0.1239 | 26.63% | 0.4770 ± 0.1057 | 30.56% | 42.91 ± 11.65% | 58.11 ± 14.67% | 42.18 ± 10.01% | 75.18 ± 21.75% | 82.59 ± 21.37% | 74.61 ± 20.09% | 0.26 ± 0.14 | 0.35 ± 0.13 | 0.43 ± 0.14 | 0.33 ± 0.17 | 0.24 ± 0.13 | 0.34 ± 0.14 | 70.66 ± 18.72% | 70.92 ± 16.52% | Swelling [6, 15]: 0.44 ± 0.15; Swelling [6, 16]: 0.34 ± 0.15
2 | mPEG-bALD20k-Arg-Gly-Ala-Asp-Arg-Ala-Gly-Gly-Gly-Gly-Arg-Gly-Asp ({mPEG‑bALD 20 kDa}-RGADRAGGGGRGD) [mPEG-bALD20k-HM-1] | 0.4988 ± 0.1173 | 28.10% | 0.4453 ± 0.1054 | 35.82% |  |  | 46.90 ± 11.54% | 60.56 ± 14.72% | 45.13 ± 12.38% | 80.75 ± 22.94% | 75.97 ± 22.67% | 75.65 ± 20.09% |  |  |  |  |  |  | 70.21 ± 18.32% | 70.73 ± 16.92% | A570 nm/A630 nm (mouse spleen lymphocytes; 20 μg/mL): 0.6104 ± 0.1005; Inhibition Rate of spleen lymphocyte proliferation (mouse spleen lymphocytes; 20 μg/mL): 12.02%; Swelling [6, 17]: 0.25 ± 0.15; Swelling [6, 18]: 0.35 ± 0.14; Swelling [6, 19]: 0.42 ± 0.15; Swelling [6, 20]: 0.36 ± 0.18
3 | mPEG2-NHS10k-Arg-Gly-Ala-Asp-Arg-Ala-Gly-Gly-Gly-Gly-Arg-Gly-Asp ({mPEG2‑NHS 10 kDa}-RGADRAGGGGRGD) [mPEG2-NHS10k-HM-1] | 0.4747 ± 0.1174 | 31.44% |  |  |  |  | 42.39 ± 12.65% | 48.12 ± 12.85% | 43.52 ± 11.16% | 65.89 ± 20.57% | 60.49 ± 18.05% | 60.69 ± 21.24% |  |  |  |  |  |  | 55.67 ± 13.53% | 55.78 ± 15.77% | A570 nm/A630 nm (mouse spleen lymphocytes; 10 μg/mL): 0.6239 ± 0.1086; Inhibition Rate of spleen lymphocyte proliferation (mouse spleen lymphocytes; 10 μg/mL): 9.90%; A570 nm/A630 nm (mouse spleen lymphocytes; 20 μg/mL): 0.5533 ± 0.1067; Inhibition Rate of spleen lymphocyte proliferation (mouse spleen lymphocytes; 20 μg/mL): 20.09%; Swelling ([6]; 20 mg/kg once a day for 3 days, 1 h after carrageenan): 0.24 ± 0.12; Swelling ([6]; 20 mg/kg once a day for 3 days, 3 h after carrageenan): 0.37 ± 0.16; Swelling ([6]; 20 mg/kg once a day for 3 days, 5 h after carrageenan): 0.42 ± 0.16; Swelling ([6]; 20 mg/kg once a day for 3 days, 7 h after carrageenan): 0.30 ± 0.12; Swelling [6, 17]: 0.21 ± 0.10; Swelling [6, 18]: 0.31 ± 0.17; Swelling [6, 19]: 0.35 ± 0.11; Swelling [6, 20]: 0.33 ± 0.15; inhibition of carrageenan-induced toe swelling (in words) ([6]; rats, 40 mg/kg, once a day for 3 days): most effective
4 | mPEG2-NHS40k-Arg-Gly-Ala-Asp-Arg-Ala-Gly-Gly-Gly-Gly-Arg-Gly-Asp ({mPEG2‑NHS 40 kDa}-RGADRAGGGGRGD) [mPEG2-NHS40k-HM-1] | 0.6191 ± 0.0984 | 10.59% | 0.4985 ± 0.1248 | 28.01% | 0.4827 ± 0.1136 | 30.28% | 45.91 ± 11.74% | 48.65 ± 12.64% | 40.36 ± 10.53% | 66.72 ± 20.85% | 62.25 ± 20.39% | 61.59 ± 13.61% | 0.26 ± 0.12 | 0.32 ± 0.11 | 0.42 ± 0.14 | 0.35 ± 0.17 | 0.27 ± 0.10 | 0.35 ± 0.18 | 56.39 ± 11.58% | 54.40 ± 18.29% | Swelling [6, 15]: 0.41 ± 0.13; Swelling [6, 16]: 0.34 ± 0.19
